Assay results as given in patent US10287552B2, “Generation of hepatocytes from pluripotent stem cells” (ALBERT EINSTEIN COLLEGE OF MEDICINE, INC., priority 2012, dated 2019).

B1: G-CSF: G-CSF (Amgen Inc.), factor identified in eFHLC-CM (protein, UniProt P09919 31-207, looked up)
Granulocyte …: TPLGPASSLPQSFLLKCLEQVRKIQGDGAALQEKLVSECATYKLCHPEELVLLGHSLGIPWAPLSSCPSQALQLAGCLSQLHSGLFLYQGLLQALEGISPELGPTLDTLQLDVADFATTIWQQMEELGMAPALQPTQGAMPAFASAFQRRAGGVLVASHLQSFLEVSYRVLRHLAQP

Test system: ATMP-tdT Huh-7 cells
Experiment: cis-P toxicity and ATM promoter activity assay
Format: cell-based, human
Conditions: 15 μM cis-P alone

**Q.** How did the ATM promoter activity turn out when `N.N.[Cl][Pt][Cl]` [Cis-P, cis-platinum, reference compound] was run?
**A.** The ATM promoter activity was “increased”.

Same assay, conditions: cis-P plus factor, versus cis-P-treated cells

**Q.** With “FGF2: growth factor identified in eFHLC-CM” as the molecule, how does the ATM promoter activity read?
**A.** Its ATM promoter activity is “lowered ATM promoter activity”.

**Q.** What about the cell viability of the same molecule?
**A.** Its cell viability is “improved cell viability”.

**Q.** Which results are given for “FGF1: growth factor identified in eFHLC-CM”?
**A.** ATM promoter activity: lowered ATM promoter activity; cell viability: improved cell viability

**Q.** With “IGF1: growth factor identified in eFHLC-CM” as the molecule, how does the ATM promoter activity read?
**A.** Its ATM promoter activity is “lowered ATM promoter activity”.

**Q.** What about the cell viability of the same molecule?
**A.** The cell viability was “improved cell viability”.

**Q.** What does the source list for VEGF?
**A.** ATM promoter activity: ineffective; cell viability: ineffective

**Q.** For B1, which ATM promoter activity is on record?
**A.** The ATM promoter activity was “lowered ATM promoter activity”.

**Q.** What about the cell viability of the same molecule?
**A.** The cell viability was “improved cell viability”.
